PubChem BioAssay AID248 (DTP/NCI, 2004)
Values joined by “and” are separate entries in the source; they are usually repeats but may differ in a detail not shown here. Equal values may be shown once. Inconclusive results and toxic doses are left out. Cut-off read from the data, not from the text of the source: active = T/C of 150% or more; inactive = T/C below 125%.

Test system: L1210 leukemia ip in BDF1 mice, survival T/C
Assay: NCI In Vivo Anticancer Drug Screen. Data for tumor model L1210 Leukemia (intraperitoneal) in B6D2F1 (BDF1) mice
Settings: endpoint: mean survival time, higher = longer survival
Method in brief: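 Survival endpoint. Drug-treated group vs vehicle group, expressed as T divided by C. Tumor passaged by transplantation.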

[1] = dose: 100.0 mg/kg/injection, schedule: Q04DX003 (ip), vehicle: saline
[2] = dose: 200.0 mg/kg/injection, schedule: Q01DX009 (ip), vehicle: acetone
[3] = dose: 200.0 mg/kg/injection, schedule: Q04DX003 (ip), vehicle: saline
[4] = dose: 400.0 mg/kg/injection, schedule: Q04DX003 (ip), vehicle: saline
[5] = dose: 100.0 mg/kg/injection, schedule: Q01DX001 (ip), vehicle: saline
[6] = dose: 200.0 mg/kg/injection, schedule: Q01DX001 (ip), vehicle: saline
[7] = dose: 100.0 mg/kg/injection, schedule: Q04DX003 (ip), vehicle: saline with Tween-80
[8] = dose: 200.0 mg/kg/injection, schedule: Q04DX003 (ip), vehicle: saline with Tween-80
[9] = dose: 400.0 mg/kg/injection, schedule: Q04DX003 (ip), vehicle: saline with Tween-80
[10] = dose: 100.0 mg/kg/injection, schedule: Q01DX001 (ip), vehicle: saline with Tween-80
[11] = dose: 100.0 mg/kg/injection, schedule: Q01DX001 (ip), vehicle: carboxymethylcellulose (CMC)
[12] = dose: 200.0 mg/kg/injection, schedule: Q01DX001 (ip), vehicle: carboxymethylcellulose (CMC)
[13] = dose: 400.0 mg/kg/injection, schedule: Q01DX001 (ip), vehicle: carboxymethylcellulose (CMC)
[14] = dose: 100.0 mg/kg/injection, schedule: Q01DX009 (ip), vehicle: saline with Tween-80
[15] = dose: 200.0 mg/kg/injection, schedule: Q01DX009 (ip), vehicle: saline with Tween-80
[16] = dose: 400.0 mg/kg/injection, schedule: Q01DX009 (ip), vehicle: saline with Tween-80
[17] = dose: 100.0 mg/kg/injection, schedule: Q01DX009 (ip), vehicle: Klucel (hydroxypropylcellulose) (HPC)
[18] = dose: 100.0 mg/kg/injection, schedule: Q04DX003 (ip), vehicle: Klucel (hydroxypropylcellulose) (HPC)
[19] = dose: 200.0 mg/kg/injection, schedule: Q01DX009 (ip), vehicle: Klucel (hydroxypropylcellulose) (HPC)
[20] = dose: 200.0 mg/kg/injection, schedule: Q04DX003 (ip), vehicle: Klucel (hydroxypropylcellulose) (HPC)
[21] = dose: 400.0 mg/kg/injection, schedule: Q01DX009 (ip), vehicle: Klucel (hydroxypropylcellulose) (HPC)
[22] = dose: 400.0 mg/kg/injection, schedule: Q04DX003 (ip), vehicle: Klucel (hydroxypropylcellulose) (HPC)

Measured: T/C

c1ccc(C2=C(c3ccccc3)c3cccc4cccc2c34)cc1
inactive: dose: 100.0 mg/kg/injection, schedule: Q01DX001 (ip), vehicle: acetone 100 % of control | dose: 100.0 mg/kg/injection, schedule: Q01DX009 (ip), vehicle: acetone 87 % of control | [1] 94 % of control | dose: 200.0 mg/kg/injection, schedule: Q01DX001 (ip), vehicle: acetone 89 % of control | [2] 96 % of control | [3] 97 % of control | dose: 400.0 mg/kg/injection, schedule: Q01DX001 (ip), vehicle: acetone 94 % of control | dose: 400.0 mg/kg/injection, schedule: Q01DX009 (ip), vehicle: acetone 87 % of control | [4] 92 % of control

C=C(C)C1C2OC2C(=O)C2=CCCC(C)C21C (configuration not stated)
inactive: dose: 25.0 mg/kg/injection, schedule: Q04DX003 (ip), vehicle: saline 97 % of control | dose: 50.0 mg/kg/injection, schedule: Q04DX003 (ip), vehicle: saline 100 % of control | [1] 100 % of control

NC(=O)CC1=NCCc2ccccc21
inactive: [5] 108 % of control | [6] 108 % of control

CC(=O)OC1COC(n2cnc3c(N)ncnc32)C(OC(C)=O)C1OC(C)=O (configuration not stated)
inactive: dose: 50.0 mg/kg/injection, schedule: Q01DX001 (ip), vehicle: saline 100 % of control | [5] 97 % of control | [6] 100 % of control

C(=C/c1ccccc1)/C=C/C(=C/c1ccccc1)c1ccccc1
inactive: [7] 91 % of control | [8] 87 % of control and 96 % of control | [9] 87 % of control and 91 % of control

O=C(O)Cc1sc(=O)[nH]c1O
inactive: dose: 100.0 mg/kg/injection, schedule: Q01DX009 (ip), vehicle: saline 96 % of control | [1] 102 % of control | dose: 200.0 mg/kg/injection, schedule: Q01DX009 (ip), vehicle: saline 96 % of control | [3] 96 % of control | dose: 400.0 mg/kg/injection, schedule: Q01DX009 (ip), vehicle: saline 99 % of control | [4] 106 % of control

COc1cccc2c1C(=O)c1c(O)c3c(c(O)c1C2=O)CC(O)(C(C)=O)CC3OC1CC2NC(=O)OC2C(C)O1 (configuration not stated)
inactive: [10] 114 % of control

O=C1c2cc(Br)ccc2-c2cc(Br)c([N+](=O)[O-])c(Br)c21
inactive: [11] 106 % of control | [12] 103 % of control | [13] 97 % of control

CC1=CC(=O)N(N)C1=O
inactive: [14] 102 % of control | [7] 98 % of control | [15] 104 % of control | [8] 100 % of control | [16] 100 % of control | [9] 96 % of control

COc1ccc(Cl)cc1[N+](=O)[O-]
inactive: dose: 200.0 mg/kg/injection, schedule: Q01DX001 (ip), vehicle: Klucel (hydroxypropylcellulose) (HPC) 95 % of control | dose: 400.0 mg/kg/injection, schedule: Q01DX001 (ip), vehicle: Klucel (hydroxypropylcellulose) (HPC) 95 % of control

CCCC/C=C/Br
inactive: [1] 100 % of control | [2] 101 % of control | [3] 108 % of control | [4] 105 % of control

CCOC(=O)C(=O)c1c2cn(O)nc(OC)c-2nc1[N+](=O)[O-]
inactive: dose: 12.5 mg/kg/injection, schedule: Q04DX002 (ip), vehicle: saline with Tween-80 89 % of control | dose: 25.0 mg/kg/injection, schedule: Q04DX002 (ip), vehicle: saline with Tween-80 96 % of control | dose: 50.0 mg/kg/injection, schedule: Q04DX002 (ip), vehicle: saline with Tween-80 96 % of control

CC(=O)c1ccc(S(=O)(=O)NCCCc2c(C)nc(NS(=O)(=O)c3ccc(C(C)=O)cc3)[nH]c2=O)cc1
inactive: [11] 98 % of control | [12] 96 % of control | [13] 93 % of control

Cc1ccc(S(=O)(=O)NC(C)(C)CN)cc1
inactive: dose: 75.0 mg/kg/injection, schedule: Q01DX001 (ip), vehicle: other 103 % of control | dose: 150.0 mg/kg/injection, schedule: Q01DX001 (ip), vehicle: other 101 % of control | dose: 300.0 mg/kg/injection, schedule: Q01DX001 (ip), vehicle: other 95 % of control

CC1CC2CCC1C2O (configuration not stated)
inactive: dose: 37.5 mg/kg/injection, schedule: Q04DX003 (ip), vehicle: saline 100 % of control | dose: 75.0 mg/kg/injection, schedule: Q04DX003 (ip), vehicle: saline 97 % of control | dose: 150.0 mg/kg/injection, schedule: Q04DX003 (ip), vehicle: saline 90 % of control

Cc1ccc(S(=O)(=O)N(CC(=O)O)Cc2ccccc2)cc1
inactive: dose: 25.0 mg/kg/injection, schedule: Q01DX009 (ip), vehicle: sodium bicarbonate 104 % of control | dose: 50.0 mg/kg/injection, schedule: Q01DX009 (ip), vehicle: sodium bicarbonate 100 % of control | [10] 100 % of control | [14] 104 % of control | dose: 100.0 mg/kg/injection, schedule: Q01DX009 (ip), vehicle: sodium bicarbonate 98 % of control | dose: 200.0 mg/kg/injection, schedule: Q01DX001 (ip), vehicle: saline with Tween-80 97 % of control | [15] 110 % of control | dose: 200.0 mg/kg/injection, schedule: Q01DX009 (ip), vehicle: sodium bicarbonate 98 % of control | dose: 400.0 mg/kg/injection, schedule: Q01DX001 (ip), vehicle: saline with Tween-80 95 % of control | [16] 95 % of control and 112 % of control | dose: 400.0 mg/kg/injection, schedule: Q01DX009 (ip), vehicle: sodium bicarbonate 97 % of control | dose: 800.0 mg/kg/injection, schedule: Q01DX009 (ip), vehicle: saline with Tween-80 92 % of control | dose: 1600.0 mg/kg/injection, schedule: Q01DX009 (ip), vehicle: saline with Tween-80 117 % of control

CNC(C(=O)OCc1ccccc1)C(C)C (configuration not stated)
inactive: [1] 112 % of control | [3] 99 % of control | [4] 100 % of control

O=C(C1=CC(c2ccccc2)=Nc2ccccc2N1)c1ccccc1
inactive: dose: 100.0 mg/kg/injection, schedule: Q04DX003 (ip), vehicle: other 89 % of control | dose: 200.0 mg/kg/injection, schedule: Q04DX003 (ip), vehicle: other 110 % of control | dose: 400.0 mg/kg/injection, schedule: Q04DX003 (ip), vehicle: other 94 % of control

COc1cccc(/C=N/NC(=O)C[n+]2ccccc2)c1OC
inactive: dose: 25.0 mg/kg/injection, schedule: Q01DX009 (ip), vehicle: saline with Tween-80 98 % of control | dose: 50.0 mg/kg/injection, schedule: Q01DX009 (ip), vehicle: saline with Tween-80 106 % of control | [7] 113 % of control

CCC(Br)C(Br)CC(Br)C(Br)CC(Br)C(Br)CCCCCCCC(=O)O (configuration not stated)
inactive: [17] 96 % of control | [18] 98 % of control | [19] 88 % of control | [20] 89 % of control | [21] 88 % of control | [22] 92 % of control

CNC(=O)OCC1=CC(=O)C=CC1=O
inactive: dose: 6.25 mg/kg/injection, schedule: Q04DX003 (ip), vehicle: Klucel (hydroxypropylcellulose) (HPC) 92 % of control | dose: 12.5 mg/kg/injection, schedule: Q01DX001 (ip), vehicle: Klucel (hydroxypropylcellulose) (HPC) 93 % of control | dose: 12.5 mg/kg/injection, schedule: Q04DX003 (ip), vehicle: Klucel (hydroxypropylcellulose) (HPC) 94 % of control | dose: 25.0 mg/kg/injection, schedule: Q01DX001 (ip), vehicle: Klucel (hydroxypropylcellulose) (HPC) 96 % of control

CCC(=O)Nc1ccc(Cl)cc1
inactive: [17] 87 % of control | [18] 95 % of control | [19] 93 % of control | [20] 95 % of control | [21] 104 % of control | [22] 95 % of control

CCC(C)c1ccc(OCCO)cc1 (configuration not stated)
inactive: [5] 97 % of control | [6] 90 % of control

CC(=O)OC1CC2C(C)(C)C(=O)C3OC3C2(C)C2CCC3(C)C(=CC(=O)OC3c3ccoc3)C12C (configuration not stated)
inactive: dose: 100.0 mg/kg/injection, schedule: Q01DX001 (sc), vehicle: steriod suspending solution 101 % of control | dose: 200.0 mg/kg/injection, schedule: Q01DX001 (sc), vehicle: steriod suspending solution 104 % of control | dose: 400.0 mg/kg/injection, schedule: Q01DX001 (sc), vehicle: steriod suspending solution 103 % of control
